Reference: patent US6806267B1, “Apoptosis-inducing compounds” (priority 1998, dated 2004)

Legend:
[1] = tested on: PARP (poly ADP-ribose polymerase); assay: Western blot of PARP cleavage in CML cells; type: cell-based, human
Protocol: CML cells were seeded at 2×10^6 cells in 5 mls of growth medium, and treated with 10 μM PBOX-6 for 16 and 24 hr. Hela cells were seeded at 1×10^6 cells per 25 cm^2 flask. Following a 24 hour incubation, the cells were treated with PBOX-3 for a further 48 hours and the cells were scraped up. Cells were then centrifuged at 500 g for 5 min, the supernatant was removed and the pellet was resuspended in 200 μl of PARP sample buffer (62.5 mM Tris/HCl pH 6.8, 6 M urea, 10% (w/v) glycerol, 2% (w/v) SDS, 0.00125% bromophenol blue, and 5% (v/v) β-mercaptoethanol was added immediately before use). Samples were sonicated for 15 sec before aliquoting into 15 μl volumes. Samples were stored at −20° C. until use. 10-15 μl of thawed samples were resolved directly on a 10% polyacrylamide gel and transferred onto PVDF membrane at room temperature using wet transfer apparatus. After transfer, the membrane was blocked overnight in PBS containing 5% dry milk (Marvel). After blocking, the membrane was washed in PBST for 2×2 minutes before incubating for 1 hr with anti-PARP antibody (2 μg/ml in PBST containing 1% dry milk). Following incubation the membrane was washed for 20 minutes in PBST and incubated with goat anti mouse HRP conjugated secondary antibody (1:1000 dilution in PBST containing 1% dry milk). After washing in PBST for 30 minutes, ECL was used to visualise the proteins. […]

[2] = tested on: HL-60 cells; assay: Agarose gel electrophoresis of DNA ladders, HL-60 cells; type: cell-based, human; conditions: 24 hours

CN(C)C(=O)OC1=C(c2cccc3ccccc23)Oc2ccccc2-n2cccc21 [PBOX-6, 7-((Dimethylcarbamoyl)oxy)-6-(1-naphthyl)pyrrolo[2,1-d][1,5]benzoxazepine]
PARP cleavage ([1]; K562 24 hours, Lama 84 16 hours): PARP cleavage occurs
PARP cleavage ([1]; KYO.1 cells, 24 hours): result in PARP cleavage
DNA fragmentation (ladder pattern) [2]: resulted in DNA fragmentation
